Earlier results in patent publication US20090163510A1 (Bristol-Myers Squibb Company, priority 2005, published 2009).
Where a name gives a salt, the structure may show the parent alone. Read-outs that look alike come from different tables or passages of the source.

System: CML
Conditions: CML patients, Kantarjian et al.

## Cc1ccc(NC(=O)c2ccc(CN3CCN(C)CC3)cc2)cc1Nc1nccc(-c2cccnc2)n1 [imatinib, Imatinib mesylate]
Blastic phase
  estimated 2-year incidence of resistance: 80%
Chronic phase post-interferon failure
  estimated 2-year incidence of resistance: 10%
